Data on 1 molecule can be found in PMC5398914 (Nature, 2017).

This test deals with T1, OxsB + OxsA (OxsA/OxsB) (Priestia megaterium, UniProt O24770).
T1 sequence (O24770 1-744): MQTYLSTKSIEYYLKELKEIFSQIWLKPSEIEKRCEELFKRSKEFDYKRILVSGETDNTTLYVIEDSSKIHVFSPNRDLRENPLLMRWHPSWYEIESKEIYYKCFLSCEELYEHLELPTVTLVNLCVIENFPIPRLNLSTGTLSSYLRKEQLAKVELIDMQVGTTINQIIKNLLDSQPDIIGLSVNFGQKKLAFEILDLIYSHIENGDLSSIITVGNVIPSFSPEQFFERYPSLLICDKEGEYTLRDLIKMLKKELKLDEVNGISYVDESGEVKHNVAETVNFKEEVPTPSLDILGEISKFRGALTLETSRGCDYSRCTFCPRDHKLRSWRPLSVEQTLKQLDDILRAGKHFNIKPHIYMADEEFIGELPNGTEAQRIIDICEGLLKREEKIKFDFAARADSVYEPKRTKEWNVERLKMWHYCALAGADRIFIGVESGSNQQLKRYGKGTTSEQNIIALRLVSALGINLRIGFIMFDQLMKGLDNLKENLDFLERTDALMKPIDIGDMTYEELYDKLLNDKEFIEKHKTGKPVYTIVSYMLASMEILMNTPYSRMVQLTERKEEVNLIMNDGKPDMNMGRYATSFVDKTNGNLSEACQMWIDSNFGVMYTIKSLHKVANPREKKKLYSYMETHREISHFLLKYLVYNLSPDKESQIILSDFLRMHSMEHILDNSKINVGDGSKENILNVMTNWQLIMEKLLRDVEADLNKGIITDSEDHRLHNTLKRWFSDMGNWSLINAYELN
The experiment in a line: HPLC product detection, MS and NMR. Type of test: biochemical. The conditions noted are these: AdoMet, HO-Cbl, MgCl2, DTT, NADPH / methyl viologen.

Molecules are shown by their SMILES.

Consider `Nc1ncnc2c1ncn2[C@H]1C[C@H](O)[C@@H](COP(=O)(O)O)O1` [dAMP], for which the “HPLC product detection, MS and NMR” value is “identify dAMP, dADP and dATP as OXT-A precursors”.
